From patent US20240025919A1, “AZA-TETRACYCLIC OXAZEPINE COMPOUNDS AND USES THEREOF” (Genentech, Inc., priority 2022, published 2024)

What was measured:
[1] = target: KRAS WT (Homo sapiens (Human), UniProt P01116); experiment: KRAS WT Biochemical Assay, BODIPY-GDP Exchange TR-FRET (Example 501; 3 nM KRAS WT, 3 nM SOS1, 60-minute incubation); settings: read-out: KRas HTRF IC50
Procedure, shortened: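 SOS1-mediated exchange assay: 3 nM biotin-KRAS WT with terbium-streptavidin, started with 3 nM SOS1 and 300 nM BODIPY-GDP, HEPES pH 7.5 with MgCl2. TR-FRET (520/490 nm) read after 60 min; normalized to DMSO and full-inhibition control, IC50 from 4-parameter Hill fit.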

[2] = target: KRAS G12D (Homo sapiens (Human), UniProt P01116, G12D); experiment: KRAS G12D LoEnz Biochemical Assay, BODIPY-GDP Exchange TR-FRET (SOS1-mediated nucleotide exchange); settings: read-out: KRas (G12D) GDP HTRF IC50
Chain of KRAS G12D (P01116-2 other isoform, or with tags, fused parts or gaps G12D): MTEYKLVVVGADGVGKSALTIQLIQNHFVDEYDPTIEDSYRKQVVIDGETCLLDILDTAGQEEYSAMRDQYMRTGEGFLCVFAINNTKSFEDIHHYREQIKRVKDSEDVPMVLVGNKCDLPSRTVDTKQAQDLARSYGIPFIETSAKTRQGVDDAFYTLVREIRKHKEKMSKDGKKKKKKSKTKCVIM

Chain of KRAS WT (P01116-2 other isoform, or with tags, fused parts or gaps): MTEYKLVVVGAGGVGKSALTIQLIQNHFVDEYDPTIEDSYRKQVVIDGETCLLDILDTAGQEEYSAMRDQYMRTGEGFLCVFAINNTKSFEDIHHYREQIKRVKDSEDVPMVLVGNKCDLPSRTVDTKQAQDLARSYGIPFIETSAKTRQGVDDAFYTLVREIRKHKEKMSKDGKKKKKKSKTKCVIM

Row | SMILES | IC50 [1] [nM] | IC50 [2] [nM]
1 | C[C@@H]1Oc2nc(-c3cc(N)cc4c3CC4)c(F)c3nc(OC[C@@]45CCCN4C[C@H](F)C5)nc(c23)N2C[C@H]3CC[C@H](N3)[C@@H]12 [Compound 201, 5-((5S,5aS,6S,9R)-1-Fluoro-12-(((2R,7aS)-2-fluorotetrahydro-1H-pyrrolizin-7a(5H)-yl)methoxy)-5-methyl-5a,6,7,8,9,10-hexahydro-5H-4-oxa-3,10a,11,13,14-pentaaza-6,9-methanonaphtho[1,8-ab]heptalen-2-yl)bicyclo[4.2.0]octa-1(6),2,4-trien-3-amine] | 1620 | 9.19
2 | Cc1c(F)c(O)cc(-c2nc3c4c(nc(OC[C@@]56CCCN5C[C@H](F)C6)nc4c2F)N2C[C@H]4CC[C@H](N4)[C@H]2[C@H](C)O3)c1C(F)(F)F [Compound 202, 2-Fluoro-5-((5S,5aS,6S,9R)-1-fluoro-12-(((2R,7aS)-2-fluorotetrahydro-1H-pyrrolizin-7a(5H)-yl)methoxy)-5-methyl-5a,6,7,8,9,10-hexahydro-5H-4-oxa-3,10a,11,13,14-pentaaza-6,9-methanonaphtho[1,8-ab]heptalen-2-yl)-3-methyl-4-(trifluoromethyl)phenol] | 214 | 1.98
3 | Cc1c(F)ccc(-c2nc3c4c(nc(OC[C@@]56CCCN5C[C@H](F)C6)nc4c2F)N2C[C@H]4CC[C@H](N4)[C@H]2[C@H](C)O3)c1C(F)(F)F [Compound 203, (5S,5aS,6S,9R)-1-fluoro-2-(4-fluoro-3-methyl-2-(trifluoromethyl)phenyl)-12-(((2R,7aS)-2-fluorotetrahydro-1H-pyrrolizin-7a(5H)-yl)methoxy)-5-methyl-5a,6,7,8,9,10-hexahydro-5H-4-oxa-3,10a,11,13,14-pentaaza-6,9-methanonaphtho[1,8-ab]heptalene] | 1590 | 26.8
4 | Cc1c(F)c(N)c(F)c(-c2nc3c4c(nc(OC[C@@]56CCCN5C[C@H](F)C6)nc4c2F)N2C[C@H]4CC[C@H](N4)[C@H]2[C@H](C)O3)c1I [Compound 204, 2,6-Difluoro-3-((5S,5aS,6S,9R)-1-fluoro-12-(((2R,7aS)-2-fluorotetrahydro-1H-pyrrolizin-7a(5H)-yl)methoxy)-5-methyl-5a,6,7,8,9,10-hexahydro-5H-4-oxa-3,10a,11,13,14-pentaaza-6,9-methanonaphtho[1,8-ab]heptalen-2-yl)-4-iodo-5-methylaniline] | 69.1 | 0.385
5 | Cc1nc(N)cc(-c2nc3c4c(nc(OCC5(CN6CC7COCC7C6)CC5)nc4c2F)N2C[C@H]4CC[C@H](N4)[C@H]2[C@H](C)O3)c1C(F)(F)F (stereo partly drawn) [Compound 205, 4-((5S,5aS,6S,9R)-1-Fluoro-5-methyl-12-((1-((tetrahydro-1H-furo[3,4-c]pyrrol-5(3H)-yl)methyl)cyclopropyl)methoxy)-5a,6,7,8,9,10-hexahydro-5H-4-oxa-3,10a,11,13,14-pentaaza-6,9-methanonaphtho[1,8-ab]heptalen-2-yl)-6-methyl-5-(trifluoromethyl)pyridin-2-amine] | 8.61 | 3.39
6 | Cc1nc(N)cc(-c2nc3c4c(nc(OCC5(CN6C7CCC6COC7)CC5)nc4c2F)N2C[C@H]4CC[C@H](N4)[C@H]2[C@H](C)O3)c1C(F)(F)F [Compound 206, 4-((5S,5aS,6S,9R)-12-((1-((3-Oxa-8-azabicyclo[3.2.1]octan-8-yl)methyl)cyclopropyl)methoxy)-1-fluoro-5-methyl-5a,6,7,8,9,10-hexahydro-5H-4-oxa-3,10a,11,13,14-pentaaza-6,9-methanonaphtho[1,8-ab]heptalene-2-yl)-6-methyl-5-(trifluoromethyl)pyridin-2-amine] | 24.2 | 0.17
7 | Cc1nc(N)cc(-c2nc3c4c(nc(OCC5(CN6CC7CCC(C6)O7)CC5)nc4c2F)N2C[C@H]4CC[C@H](N4)[C@H]2[C@H](C)O3)c1C(F)(F)F [Compound 207, 4-((5S,5aS,6S,9R)-12-((1-((8-oxa-3-azabicyclo[3.2.1]octan-3-yl)methyl)cyclopropyl)methoxy)-1-fluoro-5-methyl-5a,6,7,8,9,10-hexahydro-5H-4-oxa-3,10a,11,13,14-pentaaza-6,9-methanonaphtho[1,8-ab]heptalene-2-yl)-6-methyl-5-(trifluoromethyl)pyridin-2-amine] | 43.1 | 0.36
8 | Cc1nc(N)cc(-c2nc3c4c(nc(OCC5(CN6C[C@@H]7C[C@H]6CO7)CC5)nc4c2F)N2C[C@H]4CC[C@H](N4)[C@H]2[C@H](C)O3)c1C(F)(F)F [Compound 208, 4-((5S,5aS,6S,9R)-12-((1-(((1S,4S)-2-Oxa-5-azabicyclo[2.2.1]heptan-5-yl)methyl)cyclopropyl)methoxy)-1-fluoro-5-methyl-5a,6,7,8,9,10-hexahydro-5H-4-oxa-3,10a,11,13,14-pentaaza-6,9-methanonaphtho[1,8-ab]heptalene-2-yl)-6-methyl-5-(trifluoromethyl)pyridin-2-amine] | 24.7 | 0.31
9 | Cc1nc(N)cc(-c2nc3c4c(nc(OCC5(CN6C[C@H]7C[C@@H]6CO7)CC5)nc4c2F)N2C[C@H]4CC[C@H](N4)[C@H]2[C@H](C)O3)c1C(F)(F)F [Compound 209, 4-((5S,5aS,6S,9R)-12-((1-(((1R,4R)-2-Oxa-5-azabicyclo[2.2.1]heptan-5-yl)methyl)cyclopropyl)methoxy)-1-fluoro-5-methyl-5a,6,7,8,9,10-hexahydro-5H-4-oxa-3,10a,11,13,14-pentaaza-6,9-methanonaphtho[1,8-ab]heptalene-2-yl)-6-methyl-5-(trifluoromethyl)pyridin-2-amine] | 18.5 | 0.24
10 | Cc1nc(N)cc(-c2nc3c4c(nc(OCC5(CN6CC7CCC6CO7)CC5)nc4c2F)N2C[C@H]4CC[C@H](N4)[C@H]2[C@H](C)O3)c1C(F)(F)F [Compound 211, 4-((5S,5aS,6S,9R)-12-((1-((2-Oxa-5-azabicyclo[2.2.2]octan-5-yl)methyl)cyclopropyl)methoxy)-1-fluoro-5-methyl-5°,6,7,8,9,10-hexahydro-5H-4-oxa-3,10°,11,13,14-pentaaza-6,9-methanonaphtho[1,8-ab]heptalen-2-yl)-6-methyl-5-(trifluoromethyl)pyridin-2-amine] | 17.8 | 0.21
11 | Cc1nc(N)cc(-c2nc3c4c(nc(OCC5(CN6CCOC7(CC7)C6)CC5)nc4c2F)N2C[C@H]4CC[C@H](N4)[C@H]2[C@H](C)O3)c1C(F)(F)F [Compound 212, 4-((5S,5aS,6S,9R)-12-((1-((4-Oxa-7-azaspiro[2.5]octan-7-yl)methyl)cyclopropyl)methoxy)-1-fluoro-5-methyl-5a,6,7,8,9,10-hexahydro-5H-4-oxa-3,10a,11,13,14-pentaaza[6,9]methanonaphtho[1,8-ab]heptalene-2-yl)-6-methyl-5-(trifluoromethyl)pyridin-2-amine] | 39.1 | 0.56
12 | Cc1nc(N)cc(-c2nc3c4c(nc(OCC5(CN6CCO[C@H](C)C6)CC5)nc4c2F)N2C[C@H]4CC[C@H](N4)[C@H]2[C@H](C)O3)c1C(F)(F)F [Compound 213, 4-((5S,5aS,6S,9R)-1-Fluoro-5-methyl-12-((1-(((R)-2-methylmorpholino)methyl)cyclopropyl)methoxy)-5a,6,7,8,9,10-hexahydro-5H-4-oxa-3,10a,11,13,14-pentaaza-6,9-methanonaphtho[1,8-ab]heptalen-2-yl)-6-methyl-5-(trifluoromethyl)pyridin-2-amine] | 13.6 | 0.31
13 | Cc1nc(N)cc(-c2nc3c4c(nc(OCC56CCN5CC(F)(F)C6)nc4c2F)N2C[C@H]4CC[C@H](N4)[C@H]2[C@H](C)O3)c1C(F)(F)F (stereo partly drawn) [Compound 214, 4-((5S,5aS,6S,9R)-12-((3,3-Difluoro-1-azabicyclo[3.2.0]heptan-5-yl)methoxy)-1-fluoro-5-methyl-5°,6,7,8,9,10-hexahydro-5H-4-oxa-3,10°,11,13,14-pentaaza-6,9-methanonaptho[1,8-ab]heptalen-2-yl)-6-methyl-5-(trifluoromethyl)pyridin-2-amine] | 55.7 | 0.42
14 | Cc1nc(N)cc(-c2nc3c4c(nc(OC[C@@]56CCCN5C[C@H](F)C6)nc4c2F)N2C[C@H]4CC[C@H](N4)[C@H]2[C@H](C)O3)c1C(F)(F)F [Compound 215, 4-((5S,5aS,6S,9R)-1-Fluoro-12-(((2R,7aS)-2-fluorotetrahydro-1H-pyrrolizin-7°(5H)-yl)methoxy)-5-methyl-5°,6,7,8,9,10-hexahydro-5H-4-oxa-3,10°,11,13,14-pentaaza-6,9-methanonaphtho[1,8-ab]heptalen-2-yl)-6-methyl-5-(trifluoromethyl)pyridin-2-amine] | 7.1 | 0.21
15 | Cc1nc(N)cc(-c2nc3c4c(nc(OC[C@]56CCCN5CC(F)(F)C6)nc4c2F)N2C[C@H]4CC[C@H](N4)[C@H]2[C@H](C)O3)c1C(F)(F)F [Compound 217, 4-((5S,5aS,6S,9R)-12-(((R)-2,2-difluorotetrahydro-1H-pyrrolizin-7a(5H)-yl)methoxy)-1-fluoro-5-methyl-5a,6,7,8,9,10-hexahydro-5H-4-oxa-3,10a,11,13,14-pentaaza-6,9-methanonaphtho[1,8-ab]heptalen-2-yl)-6-methyl-5-(trifluoromethyl)pyridin-2-amine] | 242 | 3.39
16 | Cc1nc(N)cc(-c2nc3c4c(nc(OCC5(CN6C[C@@H](C)O[C@@H](C)C6)CC5)nc4c2F)N2C[C@H]4CC[C@H](N4)[C@H]2[C@H](C)O3)c1C(F)(F)F [Compound 218, 4-((5S,5aS,6S,9R)-12-((1-(((2R,6S)-2,6-Dimethylmorpholino)methyl)cyclopropyl)methoxy)-1-fluoro-5-methyl-5a,6,7,8,9,10-hexahydro-5H-4-oxa-3,10a,11,13,14-pentaaza-6,9-methanonaphtho[1,8-ab]heptalen-2-yl)-6-methyl-5-(trifluoromethyl)pyridin-2-amine] | 14.1 | 0.29
